Target: T1, Recombinant human LTC4 synthase (Homo sapiens, UniProt Q16873)
T1 construct: made in house; host or cells: Pichia pastoris
T1 sequence (Q16873 1-150): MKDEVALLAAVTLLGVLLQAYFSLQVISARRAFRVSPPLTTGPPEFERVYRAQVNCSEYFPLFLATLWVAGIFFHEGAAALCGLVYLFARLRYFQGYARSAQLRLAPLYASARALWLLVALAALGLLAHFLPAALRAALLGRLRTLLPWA
Assay: In vitro LTC4 synthase assay (LTA4 to LTC4, HTRF detection)
Type: biochemical
Details: 5 min; total concentration of title compounds in the assay 10 μM
Method: In the assay, LTC4 synthase catalyses the reaction where the substrate LTA4 is converted to LTC4. Recombinant human LTC4 synthase is expressed in Piccia pastoralis and the purified enzyme is dissolved in 25 mM tris-buffer pH 7.8 supplemented with 0.1 mM glutathione (GSH) and stored at −80° C. The assay is performed in phosphate buffered saline (PBS) pH 7.4 and 5 mM GSH in 384-well plates.
The following is added chronologically to each well:
1. 48 μL LTC4 synthase in PBS with 5 mM GSH. The total protein concentration in this solution is 0.5 μg/mL. 2. 1 μL inhibitor in DMSO (final concentration 10 μM). 3. Incubation of the plate at room temperature for 10 min. 4. 1 μL LTA4 (final concentration 2.5 μM). 5. Incubation of the plate at room temperature for 5 min. 6. 10 μL of the incubation mixture is analysed using homogenous time resolved fluorescent (HTRF) detection.

Row | Compound | inhibition at 10 µM [%]
1 | CCCCCCS(=O)(=O)c1ccc(C(=O)c2ccc(N(C)c3ccc(Cl)cc3)cc2)cc1C(=O)O [Example 3:1, 5-{4-[(4-Chlorophenyl)(methyl)amino]benzoyl}-2-(1-hexylsulfonyl)benzoic acid] | 97
2 | CCCCCCSc1ccc(C(=O)c2ccc(N(C)c3ccc(Cl)cc3)cc2)cc1C(=O)O [Example 2:1, 5-{4-[(4-Chlorophenyl)(methyl)amino]benzoyl}-2-(1-hexylsulfanyl)benzoic acid] | 99

Results, then the molecule that gave them:

Row | inhibition at 10 µM [%] | Compound
3 | 99 | CCCCCC[S+]([O-])c1ccc(C(=O)c2ncc(N(C)c3ccc(Cl)cc3)cn2)cc1C(=O)O (centres unmarked) [Example 1:21, 5-(5-((4-Chlorophenyl)(methyl)amino)pyrimidine-2-carbonyl)-2-(1-hexylsulfinyl)-benzoic acid]
4 | 100 | CN(c1ccc(Cl)cc1)c1ccc(C(=O)c2ccc([S+]([O-])c3ccc(F)c(F)c3)c(C(=O)O)c2)cc1 (centres unmarked) [1:3, 5-{4-[(4-Chlorophenyl)(methyl)amino]benzoyl}2-(3,4-difluorophenylsulfinyl)-benzoic acid]
5 | 100 | CCCCCC[S+]([O-])c1ccc(C(=O)c2ccc(N(C)c3ccc(Cl)cc3)cc2)cc1C(=O)O (centres unmarked) [Example 1:1, 5-{4-[(4-Chlorophenyl)(methyl)amino]benzoyl}-2-(1-hexylsulfinyl)benzoic acid]

Same assay, conditions: Table 4, title compounds of Example 4

Row | IC50 [µM] | Compound
6 | 0.088 | CN(c1ccc(Cl)cc1)c1ccc(C(=O)c2cc(Sc3ccc(F)c(F)c3)cc(C(=O)O)c2)cc1 [4:9, 3-{4-[(4-Chlorophenyl)(methyl)amino]benzoyl}-5-(3,4-difluorophenyl-sulfanyl)benzoic acid]
7 | 0.143 | COc1cccc(Sc2cc(C(=O)O)cc(C(=O)c3ccc(N(C)c4ccc(Cl)cc4)cc3)c2)c1 [4:5, 3-{4-[(4-Chlorophenyl)(methyl)amino]benzoyl}-5-(3-methoxyphenyl-sulfanyl)benzoic acid]
8 | 0.165 | CN(c1ccc(Cl)cc1)c1ccc(C(=O)c2cc(Sc3cccc(Cl)c3)cc(C(=O)O)c2)cc1 [4:6, 3-{4-[(4-Chlorophenyl)(methyl)amino]benzoyl}-5-(3-chlorophenyl-sulfanyl)benzoic acid]
9 | 0.215 | CCCCCCSc1cc(C(=O)O)cc(C(=O)c2ccc(N(C)c3ccc(Cl)cc3)cn2)c1 [4:3, 3-{5-[(4-Chlorophenyl)(methyl)amino]picolinoyl}-5-(1-hexyl)-sulfanylbenzoic acid]

Same assay, conditions: title compounds of the Examples

Row | Compound | IC50 [µM]
10 | CN(c1ccc(Cl)cc1)c1ccc(C(=O)c2cc(Sc3ccccc3)cc(C(=O)O)c2)nc1 [2:24, 3-{5-[(4-Chlorophenyl)methylamino]pyridine-2-carbonyl}-5-phenylsulfanyl-benzoic acid] | 0.135
11 | CCCCCCS(=O)(=O)c1ccc(C(=O)c2ccc(N(C)c3ccc(Cl)cc3)cc2)cc1C(=O)O [Example 3:1, 5-{4-[(4-Chlorophenyl)(methyl)amino]benzoyl}-2-(1-hexylsulfonyl)benzoic acid] | 0.398
12 | CN(c1ccc(Cl)cc1)c1ccc(C(=O)c2ccc([S+]([O-])C3CCCC3)c(C(=O)O)c2)cc1 (centres unmarked) [1:4, 5-{4-[(4-Chlorophenyl)(methyl)amino]benzoyl}-2-(cyclopentylsulfinyl)benzoic acid] | 0.161
13 | CCCC[S+]([O-])c1ccc(C(=O)c2ccc(N(C)c3ccc(Cl)cc3)cc2)cc1C(=O)O (centres unmarked) [1:7, 2-(1-Butylsulfinyl)-5-{4-[(4-chlorophenyl)(methyl)amino]benzoyl}benzoic acid] | 0.16
14 | CN(c1ccc(Cl)cc1)c1ccc(C(=O)c2cc(Sc3ccccc3)cc(C(=O)O)c2)cc1 [2:30, 3-(4-((4-Chlorophenyl)(methyl)amino)benzoyl)-5-(phenysulfanyl)benzoic acid] | 0.175
15 | CCCCCCSc1ccc(C(=O)c2ccc(N(C)c3ccc(Cl)cc3)cc2)cc1C(=O)O [Example 2:1, 5-{4-[(4-Chlorophenyl)(methyl)amino]benzoyl}-2-(1-hexylsulfanyl)benzoic acid] | 0.172
16 | O=C(c1ccc(Sc2ccc(C(F)(F)F)cc2)c(C(=O)O)c1)c1ccc(N(CC2CC2)c2ccc(Cl)cc2)cn1 [2:13, 5-{5-[(4-Chlorophenyl)cyclopropylmethylamino]pyridine-2-carbonyl}-2-(4-trifluoromethylphenylsulfanyl)benzoic acid] | 0.129
17 | CN(c1ccc(Cl)cc1)c1ccc(C(=O)c2ccc([S+]([O-])C3CCCCC3)c(C(=O)O)c2)cc1 (centres unmarked) [1:5, 5-{4-[(4-Chlorophenyl)(methyl)amino]benzoyl}-2-(cyclohexylsulfinyl)benzoic acid] | 0.134

Second part, the molecule after the results:

Row | IC50 [µM] | Compound
18 | 0.031 | O=C(c1ccc([S+]([O-])c2cccc(Cl)c2)c(C(=O)O)c1)c1ccc(N(CC2CC2)c2ccc(Cl)cc2)cn1 (centres unmarked) [1:18, 2-(3-Chlorophenylsulfinyl)-5-{5-[(4-chlorophenyl)cyclopropylmethylamino]-pyridine-2-carbonyl}benzoic acid]
19 | 0.054 | CCCCCC[S+]([O-])c1ccc(C(=O)c2ncc(N(C)c3ccc(Cl)cc3)cn2)cc1C(=O)O (centres unmarked) [Example 1:21, 5-(5-((4-Chlorophenyl)(methyl)amino)pyrimidine-2-carbonyl)-2-(1-hexylsulfinyl)-benzoic acid]
20 | 0.046 | O=C(c1ccc(Sc2ccc(F)cc2)c(C(=O)O)c1)c1ccc(N(CC2CC2)c2ccc(Cl)cc2)cn1 [2:11, 5-{5-[(4-Chlorophenyl)cyclopropylmethylamino]pyridine-2-carbonyl}-2-(4-fluorophenylsulfanyl)benzoic acid]
21 | 0.026 | O=C(c1ccc(N(CC2CC2)c2ccc(Cl)cc2)cc1)c1ccc([S+]([O-])c2ccccc2)c(C(=O)O)c1 (centres unmarked) [Example 1:11, 5-{4-[(4-Chlorophenyl)(cyclopropylmethyl)amino]benzoyl}-2-phenylsulfinyl-benzoic acid]
22 | 0.085 | COc1ccc(Sc2ccc(C(=O)c3ccc(N(CC4CC4)c4ccc(Cl)cc4)cn3)cc2C(=O)O)cc1 [2:20, 5-{5-[(4-Chlorophenyl)cyclopropylmethylamino]pyridine-2-carbonyl}-2-(4-methoxyphenylsulfanyl)benzoic acid]
23 | 0.086 | CN(c1ccc(Cl)cc1)c1ccc(C(=O)c2ccc([S+]([O-])CC34CCC(CC3O)C4(C)C)c(C(=O)O)c2)cc1 (centres unmarked) [1:10, 5-{4-[(4-Chlorophenyl)(methyl)amino]benzoyl}-2-[(2-hydroxy-7,7-dimethyl-bicyclo[2.2.1]-1-heptyl)methylsulfinyl]benzoic acid]
24 | 0.035 | CCCCCC[S+]([O-])c1ccc(C(=O)c2ccc(N(CC3CC3)c3ccc(Cl)cc3)cn2)cc1C(=O)O (centres unmarked) [1:16, 5-{5-[(4-Chlorophenyl)cyclopropylmethylamino]pyridine-2-carbonyl}-2-(1-hexyl-sulfinyl)benzoic acid]
25 | 0.119 | O=C(c1ccc(Sc2ccc(F)c(F)c2)c(C(=O)O)c1)c1ccc(OCc2cccc(Cl)c2)cn1 [Example 2:21, 5-[5-(3-Chlorobenzyloxy)pyridine-2-carbonyl]-2-(3,4-difluorophenyl-sulfanyl)benzoic acid]
26 | 0.082 | CN(c1ccc(Cl)cc1)c1ccc(C(=O)c2ccc([S+]([O-])c3ccccc3)c(C(=O)O)c2)cc1 (centres unmarked) [1:8, 5-{4-[(4-Chlorophenyl)(methyl)amino]benzoyl}-2-(phenylsulfinyl)benzoic acid]
27 | 0.109 | CN(c1ccc(Cl)cc1)c1ccc(C(=O)c2ccc([S+]([O-])Cc3ccccc3)c(C(=O)O)c2)cc1 (centres unmarked) [1:9, 2-(Benzylsulfinyl)-5-{4-[(4-chlorophenyl)(methyl)amino]benzoyl}benzoic acid]
28 | 0.047 | CN(c1ccc(Cl)cc1)c1ccc(C(=O)c2ccc(Sc3ccc(F)c(F)c3)c(C(=O)O)c2)nc1 [2:6]
29 | 0.088 | CN(c1ccc(Cl)cc1)c1ccc(C(=O)c2cc(Sc3ccc(F)c(F)c3)cc(C(=O)O)c2)cc1 [2:29, 3-(4-((4-Chlorophenyl)(methyl)amino)benzoyl)-5-(3,4-difluorophenylsulfanyl)benzoic acid]
30 | 0.081 | COc1cccc(Sc2ccc(C(=O)c3ccc(N(CC4CC4)c4ccc(Cl)cc4)cn3)cc2C(=O)O)c1 [2:19, 5-{5-[(4-Chlorophenyl)cyclopropylmethylamino]pyridine-2-carbonyl}-2-(3-methoxy-phenylsulfanyl)-benzoic acid]
31 | 0.041 | CCCCCC[S+]([O-])c1ccc(C(=O)c2ccc(N(C)c3ccc(Cl)cc3)cn2)cc1C(=O)O (centres unmarked) [Example 1:22, 5-{5-[(4-Chlorophenyl)methylamino]pyridine-2-carbonyl}-2-(1-hexylsulfinyl)-benzoic acid]
32 | 0.107 | CN(c1ccc(Cl)cc1)c1ccc(C(=O)c2ccc([S+]([O-])c3ccc(F)c(F)c3)c(C(=O)O)c2)cc1 (centres unmarked) [1:3, 5-{4-[(4-Chlorophenyl)(methyl)amino]benzoyl}2-(3,4-difluorophenylsulfinyl)-benzoic acid]
33 | 0.041 | O=C(c1ccc(Sc2ccc(F)c(F)c2)c(C(=O)O)c1)c1ccc(N(CC2CC2)c2ccc(Cl)cc2)cn1 [2:16, 5-{5-[(4-Chlorophenyl)cyclopropylmethylamino]pyridine-2-carbonyl}-2-(3,4-difluorophenylsulfanyl)benzoic acid]
34 | 0.048 | O=C(c1ccc([S+]([O-])c2ccc(C(F)(F)F)cc2)c(C(=O)O)c1)c1ccc(N(CC2CC2)c2ccc(Cl)cc2)cn1 (centres unmarked) [Example 1:14, 5-{5-[(4-Chlorophenyl)cyclopropylmethylamino]pyridine-2-carbonyl}-2-(4-tri-fluoromethylphenylsulfinyl)benzoic acid]
35 | 0.056 | CCCCCC[S+]([O-])c1ccc(C(=O)c2ccc(N(C)c3ccc(Cl)cc3)cc2)cc1C(=O)O (centres unmarked) [Example 1:1, 5-{4-[(4-Chlorophenyl)(methyl)amino]benzoyl}-2-(1-hexylsulfinyl)benzoic acid]
